In the NIST ThermoML archive (doi:10.1021/je101209e):

Key:
[1] = molar heat capacity at constant volume; xn = mol fraction of the nth substance listed; conditions: Fluid (supercritical or subcritical phases), Vacuum adiabatic calorimetry, x1 = 0.489
[2] = xn = mol fraction of the nth substance listed; conditions: Fluid (supercritical or subcritical phases), isochoric method, x1 = 0.489
[3] = molar heat capacity at constant volume; conditions: Fluid (supercritical or subcritical phases), Vacuum adiabatic calorimetry
[4] = Fluid (supercritical or subcritical phases), isochoric method

F/C=C/C(F)(F)F [trans-1,3,3,3-tetrafluoropropene] + O=C=O
Conditions	mass density, [2] [kg/m3]	molar heat capacity at constant volume, [1] [J/K/mol]
270.15 K, 10302 kPa	1191.8	74.42
275.15 K, 14848 kPa	1191	74.81
280.15 K, 19370 kPa	1190.1	75.36
285.15 K, 23857 kPa	1189.2	75.44
286.15 K, 24752 kPa	1189	77.71
290.15 K, 7501 kPa	1115.7	76.77
290.15 K, 28318 kPa	1188.3	75.75
295.15 K, 11107 kPa	1115	77.86
300.15 K, 14713 kPa	1114.2	78.41
301.15 K, 15434 kPa	1114.1	78.57
302.15 K, 16154 kPa	1114	78.33
303.15 K, 16872 kPa	1113.8	77.63
306.15 K, 19026 kPa	1113.3	76.61
310.15 K, 21888 kPa	1112.7	79.59
315.15 K, 25455 kPa	1112	79.12
320.15 K, 9139 kPa	1003.8	75.59
320.15 K, 28987 kPa	1111.2	78.18
325.15 K, 11633 kPa	1003.2	76.38
330.15 K, 14125 kPa	1002.7	75.99
335.15 K, 16616 kPa	1002.1	74.81
340.15 K, 19103 kPa	1001.6	74.81
345.15 K, 21584 kPa	1001	76.85
350.15 K, 24061 kPa	1000.4	76.46
355.15 K, 26532 kPa	999.9	76.53
360.15 K, 28998 kPa	999.3	78.8
361.15 K, 7303 kPa	648.9	98.76
365.15 K, 7938 kPa	648.7	97.58
370.15 K, 8742 kPa	648.5	100.71
375.15 K, 9557 kPa	648.3	103.3
380.15 K, 10380 kPa	648.1	104.86
385.15 K, 11211 kPa	647.9	104.47
390.15 K, 12047 kPa	647.6	106.11
395.15 K, 12887 kPa	647.4	107.91
400.15 K, 13731 kPa	647.2	103.92
405.15 K, 14576 kPa	647	102.28
410.15 K, 15424 kPa	646.8	97.11
415.15 K, 16273 kPa	646.6	93.67
420.15 K, 17122 kPa	646.3	92.5
425.15 K, 17972 kPa	646.1	91.79

F/C=C/C(F)(F)F [trans-1,3,3,3-tetrafluoropropene]
Conditions	mass density, [4] [kg/m3]	molar heat capacity at constant volume, [3] [J/K/mol]
270.15 K, 5540 kPa	1266.6	107.31
275.15 K, 7679 kPa	1266.2	107.2
280.15 K, 9813 kPa	1265.7	108
285.15 K, 11937 kPa	1265.3	107.88
290.15 K, 14055 kPa	1264.9	107.43
295.15 K, 2684 kPa	1185	110.39
295.15 K, 16163 kPa	1264.4	107.2
300.15 K, 4324 kPa	1184.7	111.19
305.15 K, 5963 kPa	1184.3	111.42
310.15 K, 7598 kPa	1184	112.22
315.15 K, 9231 kPa	1183.6	111.99
320.15 K, 10858 kPa	1183.3	112.9
325.15 K, 12483 kPa	1182.9	112.45
330.15 K, 14103 kPa	1182.5	113.13
335.15 K, 3368 kPa	1048.2	122.82
335.15 K, 15720 kPa	1182.2	111.99
340.15 K, 4423 kPa	1047.9	121.57
345.15 K, 5477 kPa	1047.7	121.91
350.15 K, 6529 kPa	1047.4	121
355.15 K, 7582 kPa	1047.1	119.97
360.15 K, 8633 kPa	1046.9	118.83
365.15 K, 9684 kPa	1046.6	118.49
370.15 K, 10734 kPa	1046.3	118.95
375.15 K, 11784 kPa	1046.1	119.06
380.15 K, 12833 kPa	1045.8	120.88
385.15 K, 4344 kPa	717.5	195.81
385.15 K, 13882 kPa	1045.6	121
390.15 K, 4695 kPa	717.4	192.84
390.15 K, 14930 kPa	1045.3	120.43
395.15 K, 5051 kPa	717.3	190.11
395.15 K, 15976 kPa	1045	122.14
400.15 K, 5410 kPa	717.1	185.43
405.15 K, 5772 kPa	717	181.21
410.15 K, 6137 kPa	716.9	176.31
415.15 K, 6503 kPa	716.8	174.37
420.15 K, 6872 kPa	716.7	171.18
425.15 K, 7243 kPa	716.6	167.53
